# Data taken from patent publication US8802849B2, “Tricyclic benzo[4,5]thieno-[2,3-d]pyrimidine-4-yl-amin derivatives, their salts, process for producing the compounds and their pharmaceutical use” (Vichem Chemie Kutató Kft., priority 2008, dated 2014).
# Assays:
# GSK-3beta = GSK-3beta (Homo sapiens, UniProt P49841); assay: GSK-3beta kinase assay; format: biochemical; conditions: 10 μM compound; read-out: GSK-3beta percent of inhibition
# Protocol: (§1) General description of the kinase assays: the kinase activity was assayed in 96-well microtiter plates at a final compound concentration of 10 μM in a total volume of 50 μl. Compounds were dissolved in 100% DMSO to prepare a 10 mM stock solution and than diluted with buffer to reach a 10 μM (or the required) final concentration. The kinase concentration was used to yield 10% ATP turn over. The ATP concentration was used at the KmATP and 12.5 μCi/ml adenosine 5′[γ-33P]triphosphate. The substrate concentration was used at 5 fold excess over the Km for the substrate. The reaction was incubated for 1 hour at room temperature and stopped by addition of 10 μl 50 mM EDTA. The assay was transferred to a 96 well MAPH filter plate (Millipore). The radioactivity was counted on a Microbeta microplate counter.
# Kit = Kit (Homo sapiens, UniProt P10721); assay: Kit kinase assay; format: biochemical; conditions: 10 μM compound; read-out: Kit percent of inhibition
# Protocol: as §1
# P70S6K = P70S6K (Homo sapiens, UniProt P23443); assay: P70S6K kinase assay; format: biochemical; conditions: 10 μM compound; read-out: P70S6K percent of inhibition
# Sequence of P70S6K (P23443 whole entry): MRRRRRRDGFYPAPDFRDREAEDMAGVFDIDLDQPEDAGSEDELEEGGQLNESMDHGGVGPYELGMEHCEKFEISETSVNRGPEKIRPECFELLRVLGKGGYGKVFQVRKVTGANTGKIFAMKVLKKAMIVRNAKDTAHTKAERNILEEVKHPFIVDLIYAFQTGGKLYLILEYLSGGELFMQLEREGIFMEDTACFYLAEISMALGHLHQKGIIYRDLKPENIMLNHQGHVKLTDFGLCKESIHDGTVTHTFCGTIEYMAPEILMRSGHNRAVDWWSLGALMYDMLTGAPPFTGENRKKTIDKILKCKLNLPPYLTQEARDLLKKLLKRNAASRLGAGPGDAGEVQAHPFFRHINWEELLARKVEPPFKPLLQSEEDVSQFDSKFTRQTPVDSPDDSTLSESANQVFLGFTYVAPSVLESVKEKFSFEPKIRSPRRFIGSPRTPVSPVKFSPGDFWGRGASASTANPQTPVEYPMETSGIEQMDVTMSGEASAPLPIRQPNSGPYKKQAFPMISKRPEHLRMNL
# Protocol: as §1
# c-Raf = c-Raf (Homo sapiens, UniProt P04049); assay: c-Raf kinase assay; format: biochemical; conditions: 10 μM compound; read-out: c-Raf percent of inhibition
# Protocol: as §1
# ROCK2 = ROCK2 (Homo sapiens, UniProt O75116); assay: ROCK2 kinase assay; format: biochemical; conditions: 10 μM compound; read-out: ROCK2 percent of inhibition
# Protocol: as §1
# EGFR = EGFR (Homo sapiens, UniProt P00533); assay: EGFR kinase assay (33P-ATP filter plate); format: biochemical; conditions: for inhibition at 10 µM: 10 μM compound, read-out: EGFR percent of inhibition
# Protocol: as §1
# CDK2/CycA = CDK2/CycA (Homo sapiens, UniProt P24941); assay: CDK2/CycA kinase assay; format: biochemical; conditions: 10 μM compound; read-out: CDK2/CycA percent of inhibition
# Protocol: as §1
# Abl = Abl (Homo sapiens, UniProt P00519); assay: Abl kinase assay; format: biochemical; conditions: 10 μM compound; read-out: Abl percent of inhibition
# Sequence of Abl (P00519 whole entry, species assumed): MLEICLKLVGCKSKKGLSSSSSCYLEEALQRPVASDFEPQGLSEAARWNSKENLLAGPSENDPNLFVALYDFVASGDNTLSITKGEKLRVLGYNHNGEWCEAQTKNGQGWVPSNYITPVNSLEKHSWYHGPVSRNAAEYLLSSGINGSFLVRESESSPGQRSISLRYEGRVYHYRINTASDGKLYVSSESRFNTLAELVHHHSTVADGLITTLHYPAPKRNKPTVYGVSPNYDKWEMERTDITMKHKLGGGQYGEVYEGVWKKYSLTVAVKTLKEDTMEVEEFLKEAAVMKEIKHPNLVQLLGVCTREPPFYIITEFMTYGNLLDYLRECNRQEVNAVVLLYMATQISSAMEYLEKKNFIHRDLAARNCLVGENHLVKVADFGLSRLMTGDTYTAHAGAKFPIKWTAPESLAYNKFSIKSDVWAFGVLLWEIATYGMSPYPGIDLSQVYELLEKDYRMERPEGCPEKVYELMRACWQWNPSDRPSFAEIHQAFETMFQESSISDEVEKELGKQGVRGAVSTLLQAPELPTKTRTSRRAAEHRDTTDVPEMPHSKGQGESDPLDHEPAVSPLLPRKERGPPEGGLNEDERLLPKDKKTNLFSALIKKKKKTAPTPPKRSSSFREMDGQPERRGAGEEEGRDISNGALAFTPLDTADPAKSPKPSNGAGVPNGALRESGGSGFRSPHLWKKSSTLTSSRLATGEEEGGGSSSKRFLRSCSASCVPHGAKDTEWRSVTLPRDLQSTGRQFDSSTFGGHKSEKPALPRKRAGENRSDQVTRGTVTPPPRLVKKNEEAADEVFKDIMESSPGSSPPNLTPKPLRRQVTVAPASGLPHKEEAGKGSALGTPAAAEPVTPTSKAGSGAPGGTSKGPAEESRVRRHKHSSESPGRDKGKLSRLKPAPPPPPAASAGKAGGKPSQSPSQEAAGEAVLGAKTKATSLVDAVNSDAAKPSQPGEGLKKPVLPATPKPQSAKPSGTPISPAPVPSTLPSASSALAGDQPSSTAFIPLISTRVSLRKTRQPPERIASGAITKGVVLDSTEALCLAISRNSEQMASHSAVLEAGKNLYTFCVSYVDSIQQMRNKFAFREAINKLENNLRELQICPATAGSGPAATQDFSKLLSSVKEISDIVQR
# Protocol: as §1
# c-Src = c-Src (Homo sapiens, UniProt P12931); assay: c-Src kinase assay; format: biochemical; conditions: 10 μM compound; read-out: c-Src percent of inhibition
# Protocol: as §1
# InsR = InsR (Homo sapiens, UniProt P06213); assay: InsR kinase assay; format: biochemical; conditions: 10 μM compound; read-out: InsR percent of inhibition
# Protocol: as §1
# AKT1/PKBa = AKT1/PKBa (Homo sapiens, UniProt P31749); assay: AKT1/PKBa kinase assay; format: biochemical; conditions: 10 μM compound; read-out: AKT1/PKBa percent of inhibition
# Sequence of AKT1/PKBa (P31749 whole entry): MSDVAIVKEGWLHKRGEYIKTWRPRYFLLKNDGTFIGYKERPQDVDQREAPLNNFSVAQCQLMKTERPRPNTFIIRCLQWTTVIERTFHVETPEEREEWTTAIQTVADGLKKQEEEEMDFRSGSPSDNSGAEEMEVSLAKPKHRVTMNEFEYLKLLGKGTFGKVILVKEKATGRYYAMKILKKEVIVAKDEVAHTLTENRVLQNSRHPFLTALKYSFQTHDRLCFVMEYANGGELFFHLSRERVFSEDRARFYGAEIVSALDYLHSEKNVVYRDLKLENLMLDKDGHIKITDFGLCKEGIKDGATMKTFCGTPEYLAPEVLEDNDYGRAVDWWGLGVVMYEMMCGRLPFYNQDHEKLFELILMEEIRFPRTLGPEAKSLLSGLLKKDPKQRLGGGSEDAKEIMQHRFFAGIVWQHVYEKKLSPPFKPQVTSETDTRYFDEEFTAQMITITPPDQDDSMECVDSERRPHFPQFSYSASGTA
# Protocol: as §1
# MAPK-ERK1 = MAPK-ERK1 (Homo sapiens, UniProt P27361); assay: MAPK-ERK1 kinase assay; format: biochemical; conditions: 10 μM compound; read-out: MAPK-ERK1 percent of inhibition
# Sequence of MAPK-ERK1 (P27361 whole entry): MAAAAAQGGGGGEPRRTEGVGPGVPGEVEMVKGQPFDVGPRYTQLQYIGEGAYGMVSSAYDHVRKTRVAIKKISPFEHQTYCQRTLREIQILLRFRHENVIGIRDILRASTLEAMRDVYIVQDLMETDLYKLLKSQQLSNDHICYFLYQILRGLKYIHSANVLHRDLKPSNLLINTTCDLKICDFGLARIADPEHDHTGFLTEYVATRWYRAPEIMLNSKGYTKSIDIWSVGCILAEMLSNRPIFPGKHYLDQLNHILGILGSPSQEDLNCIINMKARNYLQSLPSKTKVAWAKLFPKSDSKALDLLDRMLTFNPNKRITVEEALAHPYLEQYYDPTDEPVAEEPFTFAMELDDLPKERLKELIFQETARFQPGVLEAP
# Protocol: as §1
# cMet = cMet (Homo sapiens, UniProt P08581); assay: cMet kinase assay; format: biochemical; conditions: 10 μM compound; read-out: cMet percent of inhibition
# Sequence of cMet (P08581 25-1390): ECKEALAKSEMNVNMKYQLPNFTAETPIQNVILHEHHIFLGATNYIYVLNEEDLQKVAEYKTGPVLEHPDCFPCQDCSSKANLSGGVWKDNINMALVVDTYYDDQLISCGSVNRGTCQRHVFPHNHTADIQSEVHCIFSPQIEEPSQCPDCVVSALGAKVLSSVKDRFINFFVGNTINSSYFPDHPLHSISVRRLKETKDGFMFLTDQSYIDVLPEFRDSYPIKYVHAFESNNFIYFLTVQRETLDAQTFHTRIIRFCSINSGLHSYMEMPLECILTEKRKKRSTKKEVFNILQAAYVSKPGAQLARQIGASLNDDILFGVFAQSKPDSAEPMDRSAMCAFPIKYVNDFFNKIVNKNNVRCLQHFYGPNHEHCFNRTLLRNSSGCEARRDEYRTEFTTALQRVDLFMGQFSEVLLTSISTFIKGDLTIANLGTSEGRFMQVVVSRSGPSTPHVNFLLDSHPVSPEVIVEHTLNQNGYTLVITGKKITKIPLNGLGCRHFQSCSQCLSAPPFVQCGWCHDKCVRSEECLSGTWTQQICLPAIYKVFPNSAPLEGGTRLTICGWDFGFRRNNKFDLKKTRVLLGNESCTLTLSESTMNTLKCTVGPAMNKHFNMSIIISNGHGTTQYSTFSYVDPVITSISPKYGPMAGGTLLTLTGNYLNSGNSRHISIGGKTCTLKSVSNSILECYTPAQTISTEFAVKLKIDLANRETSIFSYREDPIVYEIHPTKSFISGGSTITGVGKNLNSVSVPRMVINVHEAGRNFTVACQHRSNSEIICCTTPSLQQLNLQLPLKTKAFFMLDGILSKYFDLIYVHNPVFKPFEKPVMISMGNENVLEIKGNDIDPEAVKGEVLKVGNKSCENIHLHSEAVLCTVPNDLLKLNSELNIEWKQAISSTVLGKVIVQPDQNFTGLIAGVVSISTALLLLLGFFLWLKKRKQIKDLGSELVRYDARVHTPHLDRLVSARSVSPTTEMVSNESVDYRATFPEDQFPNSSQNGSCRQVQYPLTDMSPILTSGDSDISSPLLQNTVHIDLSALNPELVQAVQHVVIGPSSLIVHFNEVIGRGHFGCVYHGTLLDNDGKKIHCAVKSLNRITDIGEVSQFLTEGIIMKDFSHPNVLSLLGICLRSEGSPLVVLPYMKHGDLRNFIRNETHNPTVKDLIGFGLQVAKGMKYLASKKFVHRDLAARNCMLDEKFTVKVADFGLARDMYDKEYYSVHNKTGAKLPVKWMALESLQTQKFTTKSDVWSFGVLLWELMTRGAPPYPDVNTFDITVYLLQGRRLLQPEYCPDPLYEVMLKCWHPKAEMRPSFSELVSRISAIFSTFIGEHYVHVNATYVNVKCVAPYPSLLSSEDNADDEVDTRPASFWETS
# Protocol: as §1
# SRPK1 = SRPK1 (Homo sapiens, UniProt Q96SB4); assay: SRPK1 kinase assay; format: biochemical; conditions: 10 μM compound; read-out: SRPK1 percent of inhibition
# Sequence of SRPK1 (Q96SB4 whole entry, species assumed): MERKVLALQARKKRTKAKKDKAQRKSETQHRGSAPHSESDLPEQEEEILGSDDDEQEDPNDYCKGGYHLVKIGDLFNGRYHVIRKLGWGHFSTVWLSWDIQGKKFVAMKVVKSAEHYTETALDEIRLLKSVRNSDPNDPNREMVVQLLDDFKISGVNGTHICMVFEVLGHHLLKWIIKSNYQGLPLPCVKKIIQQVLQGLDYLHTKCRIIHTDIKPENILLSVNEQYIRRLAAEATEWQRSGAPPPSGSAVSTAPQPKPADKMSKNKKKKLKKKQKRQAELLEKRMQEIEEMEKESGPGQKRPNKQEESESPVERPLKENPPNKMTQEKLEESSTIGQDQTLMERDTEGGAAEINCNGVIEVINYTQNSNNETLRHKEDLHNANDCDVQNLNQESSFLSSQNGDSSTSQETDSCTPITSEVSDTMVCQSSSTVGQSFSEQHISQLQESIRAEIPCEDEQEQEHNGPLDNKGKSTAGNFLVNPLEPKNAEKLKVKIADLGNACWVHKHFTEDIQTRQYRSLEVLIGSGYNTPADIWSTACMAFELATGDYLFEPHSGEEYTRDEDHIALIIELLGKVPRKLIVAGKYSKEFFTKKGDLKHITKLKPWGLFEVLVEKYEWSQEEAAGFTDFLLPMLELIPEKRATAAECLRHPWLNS
# Protocol: as §1
# Jnk1a1 = Jnk1a1 (Homo sapiens, UniProt P45983); assay: Jnk1a1 kinase assay; format: biochemical; conditions: 10 μM compound; read-out: Jnk1a1 percent of inhibition
# Protocol: as §1
# PDGFR-beta = PDGFR-beta (Homo sapiens, UniProt P09619); assay: PDGFR-beta kinase assay; format: biochemical; conditions: 10 μM compound; read-out: PDGFR-beta percent of inhibition
# Protocol: as §1
# CK1-alpha = CK1-alpha (Homo sapiens, UniProt P48729); assay: CK1-alpha kinase assay; format: biochemical; conditions: 10 μM compound; read-out: CK1-alpha percent of inhibition
# Protocol: as §1
# IKK-beta = molecular target: T1, IKK-beta (Homo sapiens, UniProt O14920); assay: IKK-beta kinase assay; format: biochemical; conditions: 10 μM compound; read-out: IKK-beta percent of inhibition
# T1 sequence (O14920 1-756): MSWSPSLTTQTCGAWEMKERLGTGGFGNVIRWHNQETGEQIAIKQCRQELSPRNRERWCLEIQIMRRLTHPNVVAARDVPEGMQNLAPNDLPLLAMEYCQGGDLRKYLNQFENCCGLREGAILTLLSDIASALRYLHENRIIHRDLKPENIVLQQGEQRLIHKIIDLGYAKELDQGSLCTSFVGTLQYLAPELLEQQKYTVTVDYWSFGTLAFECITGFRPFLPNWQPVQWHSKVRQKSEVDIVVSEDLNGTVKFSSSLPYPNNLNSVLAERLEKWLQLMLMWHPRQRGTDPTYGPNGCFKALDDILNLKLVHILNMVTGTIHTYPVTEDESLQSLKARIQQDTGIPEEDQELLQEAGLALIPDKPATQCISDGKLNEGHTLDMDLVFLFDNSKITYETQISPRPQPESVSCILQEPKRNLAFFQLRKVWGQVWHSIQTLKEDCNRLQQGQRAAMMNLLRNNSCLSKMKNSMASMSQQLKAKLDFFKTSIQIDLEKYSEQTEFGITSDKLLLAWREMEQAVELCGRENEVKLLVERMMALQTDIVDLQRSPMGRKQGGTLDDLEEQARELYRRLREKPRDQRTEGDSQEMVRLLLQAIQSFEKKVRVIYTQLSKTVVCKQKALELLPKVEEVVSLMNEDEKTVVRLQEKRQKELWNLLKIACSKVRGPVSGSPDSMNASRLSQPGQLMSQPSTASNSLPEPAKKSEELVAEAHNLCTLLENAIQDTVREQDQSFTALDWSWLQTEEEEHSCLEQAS
# Protocol: as §1
# P56Lck = P56Lck (Homo sapiens, UniProt P06239); assay: P56Lck kinase assay; format: biochemical; conditions: 10 μM compound; read-out: P56Lck percent of inhibition
# Sequence of P56Lck (P06239 whole entry, species assumed): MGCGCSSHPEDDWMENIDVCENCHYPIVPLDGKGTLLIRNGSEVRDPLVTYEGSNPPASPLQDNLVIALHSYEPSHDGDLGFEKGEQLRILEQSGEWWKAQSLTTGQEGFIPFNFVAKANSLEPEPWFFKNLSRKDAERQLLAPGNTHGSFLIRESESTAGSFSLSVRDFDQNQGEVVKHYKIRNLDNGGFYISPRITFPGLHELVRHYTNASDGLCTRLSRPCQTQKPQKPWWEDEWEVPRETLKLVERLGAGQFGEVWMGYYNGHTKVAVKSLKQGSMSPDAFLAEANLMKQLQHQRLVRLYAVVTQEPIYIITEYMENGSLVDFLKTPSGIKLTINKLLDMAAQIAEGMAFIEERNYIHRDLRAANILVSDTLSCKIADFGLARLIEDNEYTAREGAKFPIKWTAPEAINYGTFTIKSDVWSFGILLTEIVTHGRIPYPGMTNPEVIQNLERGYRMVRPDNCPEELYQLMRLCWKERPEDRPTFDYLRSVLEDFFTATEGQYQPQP
# Protocol: as §1
# RSK1 = RSK1 (Homo sapiens, UniProt Q15418); assay: RSK1 kinase assay; format: biochemical; conditions: 10 μM compound; read-out: RSK1 percent of inhibition
# Protocol: as §1
SMILES,inhibition at 10 µM (GSK-3beta) [%],inhibition at 10 µM (Kit) [%],inhibition at 10 µM (P70S6K) [%],inhibition at 10 µM (c-Raf) [%],inhibition at 10 µM (ROCK2) [%],inhibition at 10 µM (EGFR) [%],inhibition at 10 µM (CDK2/CycA) [%],inhibition at 10 µM (Abl) [%],inhibition at 10 µM (c-Src) [%],inhibition at 10 µM (InsR) [%],inhibition at 10 µM (AKT1/PKBa) [%],inhibition at 10 µM (MAPK-ERK1) [%],melting point [°C],inhibition at 10 µM (cMet) [%],inhibition at 10 µM (SRPK1) [%],inhibition at 10 µM (Jnk1a1) [%],inhibition at 10 µM (PDGFR-beta) [%],inhibition at 10 µM (CK1-alpha) [%],inhibition at 10 µM (IKK-beta) [%],inhibition at 10 µM (P56Lck) [%],other results
"N#Cc1cccc(Nc2ncnc3sc4c(c23)CCCC4)c1 [Compound 5, 3-(5,6,7,8-Tetrahydro-benzo[4,5]thieno[2,3-d]pyrimidin-4-ylamino)-benzonitrile]",-6,-5,1,0,-2,99,9,-7,8,-7,-25,-5,194.6,-4,7,-3,-5,7,10,-5,inhibition at 10 µM (RSK1): 19%
"Clc1ccc(Nc2ncnc3sc4c(c23)CCCC4)cc1 [Compound 7, (4-Chloro-phenyl)-(5,6,7,8-tetrahydro-benzo[4,5]thieno[2,3-d]pyrimidin-4-yl)-amine]",2,10,-17,-20,3,100,-1,-9,25,-16,-11,-9,191.2,-7,-3,-7,15,5,9,30,IC50 (EGFR; EGFR-PTK assay): 12.8 nM; inhibition at 10 µM (RSK1): -15%
"Nc1ccc(Nc2ncnc3sc4c(c23)CCCC4)cc1 [Compound 8, N-(5,6,7,8-Tetrahydro-benzo[4,5]thieno[2,3-d]pyrimidin-4-yl)-benzene-1,4-diamine]",8,20,7,11,-11,96,12,19,16,36,4,12,203.1,9,-4,20,6,4,16,2,inhibition at 10 µM (RSK1): 6%
"Clc1cccc(Nc2nc(C3CC3)nc3sc4c(c23)CCCC4)c1 [Compound 9, (3-Chloro-phenyl)-(2-cyclopropyl-5,6,7,8-tetrahydro-benzo[4,5]thieno[2,3-d]pyrimidin-4-yl)-amine]",-6,-6,0,-6,5,66,-10,-20,3,3,-10,2,208.6,-14,7,-6,-2,-3,-2,0,inhibition at 10 µM (RSK1): 2%
"Oc1cccc(Nc2nc(C3CC3)nc3sc4c(c23)CCCC4)c1 [Compound 10, 3-(2-Cyclopropyl-5,6,7,8-tetrahydro-benzo[4,5]thieno[2,3-d]pyrimidin-4-ylamino)-Phenol]",-8,-12,6,-3,6,23,-11,-2,3,2,0,9,239.7,3,18,-12,-5,4,10,3,inhibition at 10 µM (RSK1): -12%
